Consider three compounds from patent publication US8741803B2, “Pesticidal composition and method for controlling pest” (Kumiai Chemical Industry Co., Ltd., priority 2007, dated 2014).

SMILES strings stand for the structures.

In experiment [1] the test system is two-spotted spider mites. Briefly: Test Example 1: miticidal test on two-spotted spider mites (compound 6, flubendiamide and their mixture; soybean seedling dipping, 13 days). Format: in vivo, Tetranychus urticae. To be noted: Flubendiamide alone, 50.0 ppm, 25° C. The method, then: (§1) Each of the compound 6, flubendiamide, and a mixture of the compound 6 and flubendiamide was formulated into a wettable powder in accordance with Formulation Example 2. The respective formulations were diluted with water to an active ingredient concentration as identified in Table 15, and to the respective solutions, a spreader (KUMITEN manufactured by Kumiai Chemical Industry Co., Ltd.) was added at a concentration of 0.05% of the entire amount. Soybean seedlings which had been inoculated with imago two-spotted spider mites were dipped in each of the resulting solutions and dried in air. The seedlings were placed in a thermostatic chamber at 25° C. for 13 days, and the mite survivors were counted for calculation of the miticidal value by using Equation 2. The test was carried out by one series system. The predictive value in the Table was calculated based on the Colby formula (S. R. Colby (Weeds 15 (1967), 20-22) of Equation 1.
(§2) [formula] wherein X, Y and E are the following values.
(§3) X: The miticidal value of the component A at a predetermined concentration.
(§4) Y: The miticidal value of the component B at a predetermined concentration.
E: Predictive value (theoretical expected value) of the component A and the component B in combination at the respective predetermined concentrations. […]

In another experiment the test system is cotton aphid. Put plainly: Test Example 3: insecticidal test on cotton aphid (compound 6, pyridalyl and their mixture; root zone irrigation of cucumber seedlings, 3 days). The format is in vivo, Aphis qossypii. To be noted: Pyridalyl alone, 100.0 ppm, 25° C. As for the experimental part: as §2
(§5) When the practical miticidal value of the insecticide exceeds E (predictive value), a synergistic effect is obtained.
Each of the compound 6, pyridalyl, and a mixture of the compound 6 and pyridalyl was formulated into a wettable powder in accordance with Formulation Example 2. The respective formulations were diluted with water to an active ingredient concentration as identified in Table 17, and to the respective solutions, a spreader (KUMITEN manufactured by Kumiai Chemical Industry Co., Ltd.) was added at a concentration of 0.05% of the entire amount. The root zone of cucumber seedlings which had been inoculated with larvae of cotton aphid were irrigated with 5 mL of each of the solutions. The treated seedlings were placed in a thermostatic chamber at 25° C. for 3 days, and the survivors were counted for calculation of the insecticidal degree by Equation 3. The test was carried out by two series system. The predictive value in the Table was calculated based on the Colby formula of Equation 1.

Experiment [2] has as its system two-spotted spider mites. Put plainly: Test Example 2: miticidal test on two-spotted spider mites (compound 6, tebufenozide and their mixture; soybean seedling dipping, 13 days). The format is in vivo, Tetranychus urticae. To be noted: Tebufenozide alone, 100.0 ppm, 25° C.
Description: as §2, §3, §4
E: Predictive value (theoretical expected value) of the component A and the component B in combination at the respective predetermined concentrations.
as §5
as §1, with “tebufenozide,” for “flubendiamide,”, “tebufenozide” for “flubendiamide”, “16,” for “15,”, “theoretical” for “predictive”, “formula” for “formula (S. R. Colby (Weeds 15 (1967), 20-22)”

Turning to `Cc1cc(C(F)(C(F)(F)F)C(F)(F)F)ccc1NC(=O)c1cccc(I)c1C(=O)NC(C)(C)CS(C)(=O)=O` [flubendiamide], in the experiment with two-spotted spider mites [1], the Miticidal value was found to be 13. Consider `FC(F)(F)c1ccc(OCCCOc2c(Cl)cc(OCC=C(Cl)Cl)cc2Cl)nc1` [pyridalyl], for which, in the experiment with cotton aphid, the Insecticidal degree is recorded as 10. Take `CCc1ccc(C(=O)NN(C(=O)c2cc(C)cc(C)c2)C(C)(C)C)cc1` [tebufenozide]: the Miticidal value in the experiment with two-spotted spider mites [2] is 3.
